Holding throughout (type): cell-based
Experiment [1] deals with T1, hM1 (human Muscarinic receptor subtype 1) (Homo sapiens, UniProt P11229).
T1 construct: expressed in transfected cells; host or cells: CHO cells (Chinese hamster ovary cells, ATCC)
T1 sequence (P11229 1-460): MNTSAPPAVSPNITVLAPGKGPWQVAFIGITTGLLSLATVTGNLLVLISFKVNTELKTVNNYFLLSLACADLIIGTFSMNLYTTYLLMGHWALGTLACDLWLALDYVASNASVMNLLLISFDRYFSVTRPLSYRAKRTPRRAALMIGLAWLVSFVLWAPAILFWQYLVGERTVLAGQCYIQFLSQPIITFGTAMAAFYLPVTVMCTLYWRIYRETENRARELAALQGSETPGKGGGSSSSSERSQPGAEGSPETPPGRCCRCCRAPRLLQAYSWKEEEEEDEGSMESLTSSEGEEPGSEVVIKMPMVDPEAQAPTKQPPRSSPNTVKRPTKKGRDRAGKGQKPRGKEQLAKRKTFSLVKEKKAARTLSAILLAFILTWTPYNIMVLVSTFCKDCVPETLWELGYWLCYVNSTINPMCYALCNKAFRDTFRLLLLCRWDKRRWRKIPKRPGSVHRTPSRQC
As to the kind of experiment: Human M1 calcium mobilization FLIPR assay. How it is done: (§1) The compound activity in the present invention (EC50 or IC50) is measured using a 384 plate-based imaging assay that monitors drug induced intracellular Ca^2+ release in whole cells. Activation of hM1 (human Muscarinic receptor subtype 1, gene bank access NM_000738), rM1 (rat Muscarinic receptor subtype 1, gene bank access NM_080773), hM3 (human Muscarinic receptor subtype 3, gene bank access NM_000740NM_000740) and hM5 (human Muscarinic receptor subtype 5, gene bank access NM_0121258), receptors expressed in CHO cells (Chinese hamster ovary cells, ATCC) is quantified in a Molecular Devices FLIPR IITM instrument as an increase in fluorescent signal. Inhibition of hM3 and hM5 by compounds is determined by the decrease in fluorescent signal in response to 2 nM acetylcholine activation.
(§2) Prior to experiment, the cell culture medium is removed from the plates by inversion. […] Plates are incubated at 37° C. for 60 minutes prior to start the experiment. The incubation is terminated by washing the cells four times in assay buffer, leaving a residual 25 μl buffer per well. Cell plates are then transferred to the FLIPR, ready for compound additions.
(§3) The day of experiment, acetylcholine and compounds are diluted in assay buffer in three-fold concentration range (10 points serial dilution) for addition by FLIPR instrument. For all calcium assays, a baseline reading is taken for 10 seconds followed by the addition of 12.5 μl of compounds, resulting in a total well volume of 37.5 μl. Data is collected every second for 60 pictures and then every 6 seconds for 20 pictures prior to the addition of agonist. For hM3 and hM5, before agonist addition, a second baseline reading is taken for 10 seconds followed by the addition of 12.5 μl of agonist or buffer, producing a final volume of 50 μl. After agonist stimulation, the FLIPR continues to collect data every second for 60 pictures and then every 6 seconds for 20 pictures. The fluorescence emission is read using filter 1 (emission 510-570 nm) by the FLIPR on board CCD camera.
(§4) Calcium mobilization output data are calculated as the maximal relative fluorescence unit (RFU) minus the minimal value for both compound and agonist reading frame (except for hM1 and rM1 using only the maximal RFU). Data are analyzed using sigmoidal fits of a non-linear curve-fitting program (XLfit version 4.2.2 Excel add-in version 4.2.2 build 18 math 1Q version 2.1.2 build 18). All pEC50 and pIC50 values are reported as arithmetic means±standard error of mean of ‘n’ independent experiments.

In experiment [2] the target is T2, hM3 (human Muscarinic receptor subtype 3) (Homo sapiens, UniProt P20309).
T2 construct: expressed in transfected cells; host or cells: CHO cells (Chinese hamster ovary cells, ATCC)
T2 sequence (P20309 whole entry): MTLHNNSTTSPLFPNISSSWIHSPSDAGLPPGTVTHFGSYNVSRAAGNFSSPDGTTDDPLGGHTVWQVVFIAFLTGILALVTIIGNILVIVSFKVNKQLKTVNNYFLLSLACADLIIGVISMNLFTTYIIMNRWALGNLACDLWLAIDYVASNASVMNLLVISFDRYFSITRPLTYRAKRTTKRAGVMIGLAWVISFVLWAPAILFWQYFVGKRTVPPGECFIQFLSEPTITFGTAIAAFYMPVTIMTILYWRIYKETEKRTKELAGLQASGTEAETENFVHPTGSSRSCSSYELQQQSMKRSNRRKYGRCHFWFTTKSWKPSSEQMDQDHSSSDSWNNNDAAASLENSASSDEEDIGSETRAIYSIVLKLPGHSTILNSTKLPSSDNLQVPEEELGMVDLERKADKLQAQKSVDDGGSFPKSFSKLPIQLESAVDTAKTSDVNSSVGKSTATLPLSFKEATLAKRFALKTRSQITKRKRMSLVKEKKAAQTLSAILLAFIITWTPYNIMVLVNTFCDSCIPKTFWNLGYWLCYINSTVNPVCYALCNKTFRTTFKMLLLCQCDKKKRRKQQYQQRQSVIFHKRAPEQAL
As to the kind of experiment: Human M3 calcium mobilization FLIPR assay. The settings on record: receptor expressed in CHO cells, intracellular Ca2+ release. The procedure: as §1, §2, §3, §4
(A change in cytosolic calcium serves as a functional read-out for many receptors and channels.)

Experiment [3] concerns the target T3, hM5 (human Muscarinic receptor subtype 5) (Homo sapiens, UniProt P08912).
T3 construct: expressed in transfected cells; host or cells: CHO cells (Chinese hamster ovary cells, ATCC)
T3 sequence (P08912 1-532): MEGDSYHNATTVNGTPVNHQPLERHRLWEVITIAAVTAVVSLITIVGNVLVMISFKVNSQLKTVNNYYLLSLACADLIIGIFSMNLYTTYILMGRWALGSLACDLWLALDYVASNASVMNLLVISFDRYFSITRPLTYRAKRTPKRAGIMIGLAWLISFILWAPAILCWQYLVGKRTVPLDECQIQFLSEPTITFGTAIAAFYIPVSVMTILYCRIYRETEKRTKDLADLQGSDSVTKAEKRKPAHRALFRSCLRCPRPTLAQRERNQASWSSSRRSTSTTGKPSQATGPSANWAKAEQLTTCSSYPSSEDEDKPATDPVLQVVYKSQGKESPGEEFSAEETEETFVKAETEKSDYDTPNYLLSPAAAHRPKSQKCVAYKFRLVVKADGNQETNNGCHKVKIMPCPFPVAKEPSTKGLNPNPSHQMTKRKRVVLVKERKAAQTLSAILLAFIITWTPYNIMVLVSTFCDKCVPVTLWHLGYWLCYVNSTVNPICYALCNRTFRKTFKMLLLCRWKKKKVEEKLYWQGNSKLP
As to the kind of experiment: Human M5 calcium mobilization FLIPR assay. The settings on record: receptor expressed in CHO cells, intracellular Ca2+ release. The procedure: as §1, §2, §3, §4

Setting [4] is: receptor expressed in CHO cells, intracellular Ca2+ release, read-out: hM1 EC50.

The pEC50 is the EC50 on a negative log10 scale, so that one unit is a factor of ten.

pEC50: −log10 of the molar value. Where two headings read alike, the source gives them in different places.

For the molecule `COc1ccsc1C(=O)N1CCC(N2CCC(N3C(=O)OC[C@H]4CCCC[C@@H]43)CC2)CC1` (racemic) [Example 17, (±)(trans)-10-[1-[1-(3-methoxythiophene-2-carbonyl)-4-piperidyl]-4-piperidyl]-8-oxa-10-azabicyclo[4.4.0]decan-9-one], the negative-log EC50 (pEC50) in experiment [1] (setting [4]) is 6.57; in experiment [2], under 4.40; in experiment [3], under 4.40. For `Cc1ccccc1C(=O)N1CCC(N2CCC(N3C(=O)OC[C@H]4CCCC[C@@H]43)CC2)CC1` [(4aS,8aS)-1-[1-[1-(2-methylbenzoyl)-4-piperidyl]-4-piperidyl]-4a,5,6,7,8,8a-hexahydro-4H-benzo[d][1,3]oxazin-2-one], in experiment [1] (read-out: hM1 EC50 values), the negative-log EC50 (pEC50) was under 5.54. On to `CCOC(=O)N1CCC(N2CCC(N3C(=O)NC[C@H]4CCCC[C@@H]43)CC2)C1` (stereo partly drawn) [Example 5, ethyl 3-[4-[(4aR,8aS)-2-oxo-3,4,4a,5,6,7,8,8a-octahydroquinazolin-1-yl]-1-piperidyl]pyrrolidine-1-carboxylate], for which the pEC50 in experiment [1] (setting [4]) is 7.51. With `CC(C)OC(=O)N1CCC(N2CCC(N3C(=O)OC[C@H]4CCCC[C@@H]43)CC2)CC1` [Example 16, Propan-2-yl 4-[4-[(1S,6S)-9-oxo-8-oxa-10-azabicyclo[4.4.0]dec-10-yl]-1-piperidyl]piperidine-1-carboxylate], in experiment [1] (setting [4]), the pEC50 was 6.66. Take `CC(C)OC(=O)N1CCC(C)(N2CCC(N3C(=O)CN[C@H]4CCCC[C@@H]43)CC2)CC1` [isopropyl 4-[4-[(4aS,8aS)-2-oxo-3,4,4a,5,6,7,8,8a-octahydroquinoxalin-1-yl]-1-piperidyl]-4-methyl-piperidine-1-carboxylate]: in experiment [1] (read-out: hM1 EC50 values), the pEC50 was under 5.54. Same read-out and setting: the figure for `CC(C)OC(=O)N1CCC(C)(N2CCC(N3C(=O)CO[C@H]4CCCC[C@@H]43)CC2)CC1` [isopropyl 4-[4-[(4aS, 8aS)-3-oxo-4a,5,6,7,8,8a-hexahydrobenzo[b][1,4]oxazin-4-yl]-1-piperidyl]-4-methyl-piperidine-1-carboxylate] is under 5.54. The same measure, in the same setting: for `CC(C)OC(=O)N1CC[C@H](N2CCC(N3C(=O)CO[C@H]4CCCC[C@@H]43)CC2)C1` [isopropyl (3S)-3-[4-[(4aS,8aS)-3-oxo-4a,5,6,7,8,8a-hexahydrobenzo[b][1,4]oxazin-4-yl]-1-piperidyl]pyrrolidine-1-carboxylate] the value was under 5.54; for `COC(=O)N1CCC(N2CCC(N3C(=O)OC[C@H]4CCCC[C@@H]43)CC2)CC1` [methyl 4-[4-[(4aS,8aS)-2-oxo-4a,5,6,7,8,8a-hexahydro-4H-benzo[d][1,3]oxazin-1-yl]-1-piperidyl]piperidine-1-carboxylate], under 5.54; for `CC(C)(C)OC(=O)N1CCC(N2CCC(N3C(=O)OC[C@@H]4CCCC[C@H]43)CC2)CC1` [tert-butyl 4-[4-[(4aR,8aR)-2-oxo-4a,5,6,7,8,8a-hexahydro-4H-benzo[d][1,3]oxazin-1-yl]-1-piperidyl]piperidine-1-carboxylate], under 5.54. As for `CC(C)(C)OC(=O)N1CCC(N2CCC(N3C(=O)CO[C@H]4CCCC[C@@H]43)CC2)CC1` [tert-butyl 4-[4-[(4aS,8aS)-3-oxo-4a,5,6,7,8,8a-hexahydrobenzo[b][1,4]oxazin-4-yl]-1-piperidyl]piperidine-1-carboxylate], the pEC50 in experiment [1] (read-out: hM1 EC50 values) is under 5.54.

The values are drawn from patent US20090221567A1, “MUSCARINIC RECEPTOR AGONISTS, COMPOSITIONS, METHODS OF TREATMENT THEREOF, AND PROCESSES FOR PREPARATION THEREOF 177” (ASTRAZENECA AB, priority 2008, published 2009).
